test system: PC-3 cells; assay: Cell Proliferation Assay (Cell Titer Glo), PC-3 cell line; type: cell-based; details: Homo sapiens, PC-3, PC3 cells; read-out: CPEC50 PC3
Method: IV. Cell Proliferation Assay Protocol:
A2780, PC-3, or PC3MM cells were seeded at 1000 cells/well in 100 μL/well (10.000 cells/mL) growth media in 96-well plates. Cells were allowed to adhere to the bottom of plates for 3-5 hours in a 37° C. 5% CO2 incubator. Compounds were dissolved in DMSO and then transferred to the cell plates. The cells were incubated with the compounds for 3 days in a 37° C. 5% CO2 incubator. The growth medium containing the compounds was then removed from the cells and fresh medium was added, followed by 100 μL of Cell Titer Glo assay reagent (Promega). This mixture was shaken for 1 minute and then incubated without shaking for 10 minutes. Activity determinations for the compounds were made by detection on a Trilux Instrument.
V. Cell Proliferation Assay Protocol: PC-3 Cell Line
PC-3 cells were seeded at 1000 cells/well in 100 μL/well (10.000 cells/mL) along with growth media into black-walled, clear bottom 96-well plates. The cells were allowed to adhere to the bottom of the plate for 3-5 hours in a 37° C. 5% CO2 incubator.
Test compounds were diluted to 500× in DMSO. The DMSO solutions of six of the compounds were transferred to the cells in the 96 well round bottom plate, column 2, row B-F. A 1:3 serial dilution of each compound was carried out. The serial dilution comprised adding 20 μL of DMSO to the wells containing the compounds and doing a 1:3 dilution across the plate from columns 2-10. Column 11 contained only DMSO. The serial dilution was carried out using a BioMek 2000 protocol “CP Serial Dilution using 250 μL tips” or “Proliferation Compound” (if using 20 μL tips).
To a 96 deep well block, columns 2-11 rows B-F, was transferred 500 μL of growth medium. Using the FX protocol “HH_CellAssay—2 μL to 500 μL”, 2 μL of compound from each cell of the compound plate was transferred to the corresponding cell in the 96 deep well block containing 500 μL of growth medium. The instrument was programmed to dilute the compound in growth medium and then transfer 100 μL of that mixture to cell plates containing cells. The cell plates, to which test compounds had been added, were incubated for 3 days at 37° C. Following the incubation, the medium was removed and replaced with fresh medium. Cell Titer Glo (100 μL) was added to each well and the plate was shaken for 1 minute and then incubated without shaking for 10 minutes. The plates were then read using a Trilux instrument.

`CCN1CCC(Oc2ccc3cnc(Nc4cc(OC)cc(OC)c4)nc3c2)CC1` [Compound 958, N-(3,5-dimethoxyphenyl)-7-(1-ethylpiperidin-4-yloxy)quinazolin-2-amine] was tested. Which EC50 did it give?
The EC50 was < 5 µM.

How did the EC50 turn out when `CC(C)N1CCC(Oc2ccc3cnc(Nc4ccc(Cl)cc4)nc3c2)CC1` [Compound 959, N-(4-chlorophenyl)-7-(1-isopropylpiperidin-4-yloxy)quinazolin-2-amine] was run?
The EC50 was < 5 µM.

With `CC(C)NS(=O)(=O)c1ccc(Nc2ncc3ccc(OC4CCN(C(C)C)CC4)cc3n2)cc1` [Compound 961, N-isopropyl-4-(7-(1-isopropylpiperidin-4-yloxy)quinazolin-2-ylamino)benzenesulfonamide] as the compound, how does the EC50 read?
The EC50 was < 5 µM.

For `CNC(=O)Cc1ccc(Nc2ncc3cccc(OC4CCN(C(C)C)CC4)c3n2)cc1` [Compound 966, 2-(4-(8-(1-isopropylpiperidin-4-yloxy)quinazolin-2-ylamino)phenyl)-N-methylacetamide], which EC50 is on record?
Its EC50 is < 5 µM.

For `CC(C)NC(=O)Cc1ccc(Nc2ncc3cccc(OC4CCN(C(C)C)CC4)c3n2)cc1` [Compound 967, N-isopropyl-2-(4-(8-(1-isopropylpiperidin-4-yloxy)quinazolin-2-ylamino)phenyl)acetamide], which EC50 is on record?
The EC50 was < 5 µM.

Which EC50 does the source give for `CC(C)N1CCC(Oc2cccc3cnc(Nc4ccc(N5CCOCC5)cc4)nc23)CC1` [Compound 968, 8-(1-isopropylpiperidin-4-yloxy)-N-(4-morpholinophenyl)quinazolin-2-amine] here?
Its EC50 is < 5 µM.

`CC(=O)Nc1ccc(Nc2ncc3cccc(OC4CCN(C(C)C)CC4)c3n2)cc1` [Compound 969] was tested. Which EC50 did it give?
Its EC50 is < 5 µM.

How did the EC50 turn out when `CC(C)N1CCC(Oc2cccc3cnc(Nc4ccc(CC(N)=O)cc4)nc23)CC1` [Compound 970, 2-(4-(8-(1-isopropylpiperidin-4-yloxy)quinazolin-2-ylamino)phenyl)acetamide] was run?
The EC50 was < 5 µM.

For `Fc1ccc(Nc2ncc3ccc(OC4CCNCC4)cc3n2)cc1` [Compound 988, N-(4-fluorophenyl)-7-(piperidin-4-yloxy)quinazolin-2-amine], which EC50 is on record?
Its EC50 is < 5 µM.

For `CC(C)N1CCC(Oc2ccc3cnc(Nc4ccc(F)cc4)nc3c2)CC1` [Compound 989, N-(4-fluorophenyl)-7-(1-isopropylpiperidin-4-yloxy)quinazolin-2-amine], which EC50 is on record?
Its EC50 is 5 to 10 µM.

`CNS(=O)(=O)Cc1ccc(Nc2ncc3ccc(OC4CCN(C(C)C)CC4)cc3n2)cc1` [Compound 990, 1-(4-(7-(1-isopropylpiperidin-4-yloxy)quinazolin-2-ylamino)phenyl)-N-methylmethanesulfonamide] was tested. Which EC50 did it give?
The EC50 was < 5 µM.

For `CC(C)N1CCC(Oc2cccc3cnc(Nc4ccc(NC(=O)N5CCCC5)cc4)nc23)CC1` [Compound 992, N-(4-(8-(1-isopropylpiperidin-4-yloxy)quinazolin-2-ylamino)phenyl)pyrrolidine-1-carboxamide], which EC50 is on record?
Its EC50 is < 5 µM.

For `CC(C)N1CCC(Oc2cccc3cnc(Nc4cccc(CC(N)=O)c4)nc23)CC1` [Compound 1002, 2-(3-(8-(1-isopropylpiperidin-4-yloxy)quinazolin-2-ylamino)phenyl)acetamide], which EC50 is on record?
The EC50 was 5 to 10 µM.

Which EC50 does the source give for `CNC(=O)Cc1cccc(Nc2ncc3cccc(OC4CCN(C(C)C)CC4)c3n2)c1` [Compound 1003, 2-(3-(8-(1-isopropylpiperidin-4-yloxy)quinazolin-2-ylamino)phenyl)-N-methylacetamide] here?
Its EC50 is < 5 µM.

`CNC(=O)Cc1cccc(NC(=O)Cc2cccc(Nc3ncc4cccc(OC5CCN(C(C)C)CC5)c4n3)c2)c1` [Compound 1004, 2-(3-(8-(1-isopropylpiperidin-4-yloxy)quinazolin-2-ylamino)phenyl)-N-(3-(2-(methylamino)-2-oxoethyl)phenyl)acetamide] was tested. Which EC50 did it give?
Its EC50 is < 5 µM.

With `CC(C)NC(=O)Cc1cccc(Nc2ncc3cccc(OC4CCN(C(C)C)CC4)c3n2)c1` [Compound 1005, N-isopropyl-2-(3-(8-(1-isopropylpiperidin-4-yloxy)quinazolin-2-ylamino)phenyl)acetamide] as the compound, how does the EC50 read?
Its EC50 is < 5 µM.

`CC(C)N1CCC(Oc2cccc3cnc(Nc4cccc(N5CCOCC5)c4)nc23)CC1` [Compound 1006, 8-(1-isopropylpiperidin-4-yloxy)-N-(3-morpholinophenyl)quinazolin-2-amine] was tested. Which EC50 did it give?
The EC50 was 5 to 10 µM.

For `CC(=O)Nc1cccc(Nc2ncc3cccc(OC4CCN(C(C)C)CC4)c3n2)c1` [Compound 1007, N-(3-(8-(1-isopropylpiperidin-4-yloxy)quinazolin-2-ylamino)phenyl)acetamide], which EC50 is on record?
Its EC50 is < 5 µM.

Which EC50 does the source give for `CNS(=O)(=O)Cc1ccc(Nc2ncc3cccc(OC4CCN(C(C)C)CC4)c3n2)cc1` [Compound 1008, 1-(4-(8-(1-isopropylpiperidin-4-yloxy)quinazolin-2-ylamino)phenyl)-N-methylmethanesulfonamide] here?
The EC50 was < 5 µM.

Which EC50 does the source give for `CC(C)N1CCC(Oc2cccc3cnc(Nc4ccc(F)cc4)nc23)CC1` [Compound 1009, N-(4-fluorophenyl)-8-(1-isopropylpiperidin-4-yloxy)quinazolin-2-amine] here?
Its EC50 is 5 to 10 µM.

With `CC(C)N1CCC(Oc2cccc3cnc(Nc4ccc(Cl)cc4)nc23)CC1` [Compound 1010, N-(4-chlorophenyl)-8-(1-isopropylpiperidin-4-yloxy)quinazolin-2-amine] as the compound, how does the EC50 read?
The EC50 was < 5 µM.

Which EC50 does the source give for `CC(C)N1CCC(Oc2cccc3cnc(Nc4ccc(C(F)(F)F)cc4)nc23)CC1` [Compound 1011, 8-(1-isopropylpiperidin-4-yloxy)-N-(4-(trifluoromethyl)phenyl)quinazolin-2-amine] here?
Its EC50 is < 5 µM.

`CC(C)N1CCC(Oc2ccc3cnc(Nc4ccc(N)c(Cl)c4)nc3c2)CC1` [Compound 1013, 3-chloro-N1-(7-(1-isopropylpiperidin-4-yloxy)quinazolin-2-yl)benzene-1,4-diamine] was tested. Which EC50 did it give?
The EC50 was 5 to 10 µM.

How did the EC50 turn out when `CC(=O)Nc1ccc(Nc2ncc3ccc(OC4CCNCC4)cc3n2)cc1C` [Compound 1014, N-(2-methyl-4-(7-(piperidin-4-yloxy)quinazolin-2-ylamino)phenyl)acetamide] was run?
The EC50 was < 5 µM.

For `C#Cc1cc(OC2CCN(C(C)C)CC2)c2nc(Nc3ccc(S(N)(=O)=O)cc3)ncc2c1` [Compound 1015, 4-(6-ethynyl-8-(1-isopropylpiperidin-4-yloxy)quinazolin-2-ylamino)benzenesulfonamide], which EC50 is on record?
Its EC50 is < 5 µM.
